Test results published in patent US20080021026A1, “BENZOTHIOPHENE INHIBITORS OF RHO KINASE” (priority 2006, published 2008).

Key:
[1] = target: T1, recombinant N-terminal GST-tagged human Rho kinase 2 (ROCK2, amino acids 1-552) (Homo sapiens, UniProt O75116); assay: In vitro Rho kinase assay (luciferase-based ATP consumption), ROCK2; type: biochemical; conditions: recombinant GST-tagged human ROCK2, luciferase-based ATP consumption; read-out: ROCK2 IC50
T1 construct: ROCK2, amino acids 1-552; purchased Invitrogen Inc. PV3759
T1 sequence (O75116 1-552): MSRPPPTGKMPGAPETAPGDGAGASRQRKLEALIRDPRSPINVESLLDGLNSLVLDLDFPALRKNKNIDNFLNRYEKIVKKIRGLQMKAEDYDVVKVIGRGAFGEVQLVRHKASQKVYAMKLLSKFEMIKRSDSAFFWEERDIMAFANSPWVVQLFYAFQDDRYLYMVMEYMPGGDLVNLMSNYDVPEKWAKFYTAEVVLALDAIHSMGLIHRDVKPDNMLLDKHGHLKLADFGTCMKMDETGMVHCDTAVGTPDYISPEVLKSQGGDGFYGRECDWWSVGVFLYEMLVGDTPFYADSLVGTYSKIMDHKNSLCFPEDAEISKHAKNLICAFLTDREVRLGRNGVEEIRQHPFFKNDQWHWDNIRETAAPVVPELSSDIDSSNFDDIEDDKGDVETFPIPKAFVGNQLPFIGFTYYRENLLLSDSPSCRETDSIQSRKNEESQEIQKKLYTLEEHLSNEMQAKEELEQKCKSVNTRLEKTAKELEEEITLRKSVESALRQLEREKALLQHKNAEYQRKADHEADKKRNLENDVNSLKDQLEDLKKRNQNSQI
In short: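 GST-ROCK2 (aa 1-552, 0.82 μg/ml) with 100 μg/ml S6 peptide and 3 µM ATP in Tris pH 7.5 buffer with MgCl2/CaCl2/EGTA/BSA, compound added just after reaction start, 2 h at 30 °C. Remaining ATP read by luciferase luminescence. Efficacy expressed as percentage of H-1152P positive control.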

[2] = target: T2, recombinant N-terminal GST-tagged human Rho kinase 1 (ROCK1, amino acids 1-535) (Homo sapiens, UniProt Q13464); assay: In vitro Rho kinase assay (luciferase-based ATP consumption), ROCK1; type: biochemical; conditions: recombinant GST-tagged human ROCK1, luciferase-based ATP consumption; read-out: ROCK1 IC50
T2 construct: ROCK1, amino acids 1-535; purchased Invitrogen Inc. PV-3691
T2 sequence (Q13464 1-535): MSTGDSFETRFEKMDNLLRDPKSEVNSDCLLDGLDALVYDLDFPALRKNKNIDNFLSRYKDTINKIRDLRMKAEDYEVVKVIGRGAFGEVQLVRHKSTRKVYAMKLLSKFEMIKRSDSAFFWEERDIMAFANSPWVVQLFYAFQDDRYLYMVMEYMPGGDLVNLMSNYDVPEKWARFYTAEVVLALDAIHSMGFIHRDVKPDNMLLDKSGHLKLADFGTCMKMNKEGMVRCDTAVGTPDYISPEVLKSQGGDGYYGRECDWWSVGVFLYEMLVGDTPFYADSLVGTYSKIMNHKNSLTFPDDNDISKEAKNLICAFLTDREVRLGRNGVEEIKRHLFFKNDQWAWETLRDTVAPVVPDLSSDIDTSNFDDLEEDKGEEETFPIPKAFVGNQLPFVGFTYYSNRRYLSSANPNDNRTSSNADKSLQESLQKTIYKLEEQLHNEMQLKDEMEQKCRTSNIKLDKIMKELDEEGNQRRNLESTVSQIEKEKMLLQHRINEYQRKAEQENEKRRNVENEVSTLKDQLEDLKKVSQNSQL
In short: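 GST-ROCK1 (aa 1-535) at 0.82 μg/ml with 100 μg/ml S6 peptide and 3 µM ATP in Tris pH 7.5 buffer with MgCl2, CaCl2, EGTA, BSA; compound added after reaction start, 2 h at 30 °C. Remaining ATP read by luciferase luminescence; efficacy as percent of H-1152P positive control.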

Row | Structure (SMILES) | IC50 [1] [µM] | IC50 [2] [µM]
1 | Cc1c(-c2ccnc(N)n2)sc2ccc(CNC(=O)c3ccc([N+](=O)[O-])c(O)c3)cc12 [Example 226, Cc1c(sc2ccc(CNC(═O)c3ccc(c(O)c3)[N+]([O−])═O)cc12)-c4ccnc(N)n4] | < 5 | > 5
2 | Cc1c(-c2ccnc(N)n2)sc2ccc(CNC(=O)c3cc(O)ccc3[N+](=O)[O-])cc12 [Example 227, Cc1c(sc2ccc(CNC(═O)c3cc(O)ccc3[N+]([O−])═O)cc12)-c4ccnc(N)n4] | < 5 | > 5
3 | Cc1c(-c2ccnc(N)n2)sc2ccc(CNC(=O)c3cc([N+](=O)[O-])ccc3O)cc12 [Example 228, Cc1c(sc2ccc(CNC(═O)c3cc(ccc3O)[N+]([O−])═O)cc12)-c4ccnc(N)n4] | < 5 | > 5
4 | Cc1c(-c2ccnc(N)n2)sc2ccc(CNC(=O)c3cc([N+](=O)[O-])ccc3F)cc12 [Example 229, Cc1c(sc2ccc(CNC(═O)c3cc(ccc3F)[N+]([O−])═O)cc12)-c4ccnc(N)n4] | < 5 | < 5
5 | Cc1c(-c2ccnc(N)n2)sc2ccc(CNC(=O)c3cc(F)ccc3[N+](=O)[O-])cc12 [Example 230, Cc1c(sc2ccc(CNC(═O)c3cc(F)ccc3[N+]([O−])═O)cc12)-c4ccnc(N)n4] | < 5 | < 5
6 | Cc1c(-c2ccnc(N)n2)sc2ccc(CNC(=O)c3ccc(F)c([N+](=O)[O-])c3)cc12 [Example 231, Cc1c(sc2ccc(CNC(═O)c3ccc(F)c(c3)[N+]([O−])═O)cc12)-c4ccnc(N)n4] | < 5 | < 5
7 | COc1ccc(Cl)cc1C(=O)NCc1ccc2sc(-c3ccnc(N)n3)c(C)c2c1 [Example 232, COc1ccc(Cl)cc1C(═O)NCc2ccc3sc(c(C)c3c2)-c4ccnc(N)n4] | < 5 | > 5
8 | COc1cc(Cl)ccc1C(=O)NCc1ccc2sc(-c3ccnc(N)n3)c(C)c2c1 [Example 233, COc1cc(Cl)ccc1C(═O)NCc2ccc3sc(c(C)c3c2)-c4ccnc(N)n4] | < 5 | < 5
9 | Cc1c(-c2ccnc(N)n2)sc2ccc(CNC(=O)Cc3ccc(O)c(Cl)c3)cc12 [Example 234, Cc1c(sc2ccc(CNC(═O)Cc3ccc(O)c(Cl)c3)cc12)-c4ccnc(N)n4] | < 5 | < 5
10 | COc1cc(C(=O)NCc2ccc3sc(-c4ccnc(N)n4)c(C)c3c2)cc(Cl)n1 [Example 235, COc1cc(cc(Cl)n1)C(═O)NCc2ccc3sc(c(C)c3c2)-c4ccnc(N)n4] | < 5 | < 5
11 | Cc1c(-c2ccnc(N)n2)sc2ccc(CNC(=O)c3ccc4cc(O)ccc4c3)cc12 [Example 236, Cc1c(sc2ccc(CNC(═O)c3ccc4cc(O)ccc4c3)cc12)-c5ccnc(N)n5] | < 5 | < 5
12 | Cc1c(-c2ccnc(N)n2)sc2ccc(CNC(=O)c3c(O)ccc4ccccc34)cc12 [Example 237, Cc1c(sc2ccc(CNC(═O)c3c(O)ccc4ccccc34)cc12)-c5ccnc(N)n5] | < 5 | < 5
13 | Cc1c(-c2ccnc(N)n2)sc2ccc(CNC(=O)c3cc4ccccc4cc3O)cc12 [Example 238, Cc1c(sc2ccc(CNC(═O)c3cc4ccccc4cc3O)cc12)-c5ccnc(N)n5] | < 5 | < 5
14 | Cc1c(-c2ccnc(N)n2)sc2ccc(CNC(=O)c3ccc4ccccc4c3O)cc12 [Example 239, Cc1c(sc2ccc(CNC(═O)c3ccc4ccccc4c3O)cc12)-c5ccnc(N)n5] | < 5 | > 5
15 | Cc1c(-c2ccnc(N)n2)sc2ccc(CNC(=O)c3ccc4cccc(O)c4n3)cc12 [Example 240, Cc1c(sc2ccc(CNC(═O)c3ccc4cccc(O)c4n3)cc12)-c5ccnc(N)n5] | < 5 | < 5
16 | Cc1c(-c2ccnc(N)n2)sc2ccc(CNC(=O)C(C)NC(=O)OC(C)(C)C)cc12 (stereo not shown) [Example 241, C[C](NC(═O)OC(C)(C)C)C(═O)NCc1ccc2sc(c(C)c2c1)-c3ccnc(N)n3] | > 5 | < 5
17 | Cc1c(-c2ccnc(N)n2)sc2ccc(CNC(=O)c3ccccc3C(F)(F)F)cc12 [Example 243, Cc1c(sc2ccc(CNC(═O)c3ccccc3C(F)(F)F)cc12)-c4ccnc(N)n4] | < 5 | < 5
